According to ChEMBL document CHEMBL1201862, “PubChem BioAssay data set” (2004):
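Cultured in 96-well plates, cells were exposed to test compound for 48 hours across five concentrations. GI50 is the concentration that inhibits growth by half.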 Activity calls are given as the source filed them. Rule as the data show it: active = GI50 up to about 1.1 µM and inactive = higher.

Assays:
Assay in all cases: DTP human tumour cell line panel, 48 h
[1] = test system: MDA-MB-231
[2] = test system: A498
[3] = test system: M14
[4] = test system: KM12
[5] = test system: SW-620
[6] = test system: MDA-N
[7] = test system: OVCAR-4
[8] = test system: U-251
[9] = test system: Malme-3M
[10] = test system: NCI-H23
[11] = test system: HCT-15
[12] = test system: SK-MEL-28
[13] = test system: UO-31
[14] = test system: CAKI-1
[15] = test system: SN12C
[16] = test system: LOX IMVI
[17] = test system: HOP-62
[18] = test system: HL-60
[19] = test system: K562
[20] = test system: SR

Structure (SMILES) | GI50 [1] | GI50 [2] | GI50 [3] | GI50 [4] | GI50 [5] | GI50 [6] | GI50 [7] | GI50 [8] | GI50 [9] | GI50 [10] | GI50 [11] | GI50 [12] | GI50 [13] | GI50 [14] | GI50 [15] | GI50 [16] | GI50 [17] | GI50 [18] | GI50 [19] | GI50 [20]
N#Cc1c(-c2ccccc2)c(/C=N/c2ccc(Cl)cc2)c(=O)n2c1[nH]c1ccccc12 | > 100 µM (inactive) | > 100 µM (inactive) | > 100 µM (inactive) | 54.1 µM (inactive) | > 100 µM (inactive) | 20.4 µM (inactive) | > 100 µM (inactive) | > 100 µM (inactive) | > 100 µM (inactive) | > 100 µM (inactive) | > 100 µM | > 100 µM (inactive) | 34.4 µM (inactive) | 20.1 µM (inactive) | 97.7 µM (inactive) | > 100 µM (inactive) | 73.5 µM (inactive) | – | – | –
c1ccc2nn(C3CCCO3)nc2c1 (stereo not drawn) | > 100 µM (inactive) | > 100 µM (inactive) | > 100 µM (inactive) | – | – | > 100 µM (inactive) | > 100 µM (inactive) | > 100 µM (inactive) | > 100 µM (inactive) | > 100 µM (inactive) | > 100 µM | – | – | > 100 µM (inactive) | > 100 µM (inactive) | – | > 100 µM (inactive) | > 100 µM (inactive) | > 100 µM (inactive) | –
COc1cc(/C=N\c2nc(-c3ccc(NS(=O)(=O)c4ccc(Cl)c(OC)c4)cc3)cs2)ccc1O | – | – | 95.5 µM (inactive) | 29.2 µM (inactive) | 41.1 µM (inactive) | 29.6 µM (inactive) | 35.2 µM (inactive) | – | 45 µM (inactive) | 31.1 µM (inactive) | > 100 µM | 33.2 µM (inactive) | 60.8 µM (inactive) | > 100 µM (inactive) | 42.3 µM (inactive) | 35.7 µM (inactive) | > 100 µM (inactive) | 26.1 µM (inactive) | 27.9 µM (inactive) | 30.8 µM (inactive)
CC(C)(NC(=O)OCc1ccccc1)C(=O)OC(=O)C(C)(C)NC(=O)OCc1ccccc1 | > 100 µM (inactive) | > 100 µM (inactive) | > 100 µM (inactive) | > 100 µM (inactive) | > 100 µM (inactive) | 23.6 µM (inactive) | > 100 µM (inactive) | > 100 µM (inactive) | > 100 µM (inactive) | > 100 µM (inactive) | > 100 µM | > 100 µM (inactive) | > 100 µM (inactive) | > 100 µM (inactive) | > 100 µM (inactive) | > 100 µM (inactive) | > 100 µM (inactive) | – | > 100 µM (inactive) | –
O=C(NC12CC3CC(CC(C3)C1)C2)C(=O)c1c[nH]c2ccc([N+](=O)[O-])cc12 | – | 37.8 µM (inactive) | 34 µM (inactive) | 33.7 µM (inactive) | 31.7 µM (inactive) | – | 7.59 µM (inactive) | 10.9 µM (inactive) | 24.7 µM (inactive) | 38.7 µM (inactive) | > 78.9 µM | 85.1 µM (inactive) | > 47.2 µM (inactive) | 65.9 µM (inactive) | 31 µM (inactive) | 15.3 µM (inactive) | 17.1 µM (inactive) | > 35.6 µM (inactive) | 49 µM (inactive) | 14 µM (inactive)
OC1(c2ccccc2)C2CCN(CC2)C1CN1CCOCC1 (stereo not drawn) | > 100 µM (inactive) | > 100 µM (inactive) | > 100 µM (inactive) | > 100 µM (inactive) | > 100 µM (inactive) | – | > 100 µM (inactive) | > 100 µM (inactive) | > 100 µM (inactive) | > 100 µM (inactive) | > 100 µM | > 100 µM (inactive) | > 100 µM (inactive) | > 100 µM (inactive) | > 100 µM (inactive) | > 100 µM (inactive) | > 100 µM (inactive) | > 100 µM (inactive) | > 100 µM (inactive) | > 100 µM (inactive)
CC(=O)NNc1nc(C)c(C(=O)NNC(=O)C(=O)Nc2ccc(C)cc2[N+](=O)[O-])s1 | – | > 100 µM (inactive) | > 100 µM (inactive) | > 100 µM (inactive) | > 100 µM (inactive) | – | > 100 µM (inactive) | > 100 µM (inactive) | > 100 µM (inactive) | > 100 µM (inactive) | > 100 µM | > 100 µM (inactive) | > 100 µM (inactive) | > 100 µM (inactive) | > 100 µM (inactive) | 56.4 µM (inactive) | > 100 µM (inactive) | > 100 µM (inactive) | > 100 µM (inactive) | 65.2 µM (inactive)
CN(C)CCn1c2c(c3ccccc31)CCc1ccccc1-2 | 13.9 µM (inactive) | – | 13.5 µM (inactive) | 13.4 µM (inactive) | 18.8 µM (inactive) | – | 14.3 µM (inactive) | 13.6 µM (inactive) | 16.1 µM (inactive) | 17.4 µM (inactive) | 10.7 µM | 15.8 µM (inactive) | 13.6 µM (inactive) | 14.9 µM (inactive) | 13.8 µM (inactive) | 17 µM (inactive) | 15.7 µM (inactive) | – | – | 10.8 µM (inactive)
CC(C)=C1C(=O)C[C@]2(C)C/C=C(\C)CC/C=C(\C)CC[C@@H]12 | 7.89 µM (inactive) | 20.8 µM (inactive) | 7.87 µM (inactive) | 8.67 µM (inactive) | 9.31 µM (inactive) | – | 15.3 µM (inactive) | 7.62 µM (inactive) | – | 10.2 µM (inactive) | 8.28 µM | 8.22 µM (inactive) | 7.73 µM (inactive) | 7.96 µM (inactive) | 9.42 µM (inactive) | – | 9.08 µM (inactive) | – | 6.65 µM (inactive) | 9.86 µM (inactive)
O=S(=O)(Oc1ccc2oc3ccccc3c2c1-c1c(OS(=O)(=O)C(F)(F)F)ccc2oc3ccccc3c12)C(F)(F)F | > 100 µM (inactive) | > 100 µM (inactive) | > 100 µM (inactive) | > 100 µM (inactive) | > 100 µM (inactive) | – | > 100 µM (inactive) | > 100 µM (inactive) | – | > 100 µM (inactive) | > 100 µM | > 100 µM (inactive) | > 100 µM (inactive) | > 100 µM (inactive) | – | > 100 µM (inactive) | > 100 µM (inactive) | 8.28 µM (inactive) | > 100 µM (inactive) | > 100 µM (inactive)
COc1ccc(/N=N/C(=O)NC(CC(C)C)C(=O)NC(Cc2ccccc2)C(=O)O)cc1 (stereo not drawn) | – | > 100 µM (inactive) | 0.459 µM (active) | 11.9 µM (inactive) | 7.73 µM (inactive) | 0.7 µM (active) | 57.5 µM (inactive) | > 100 µM (inactive) | 7.55 µM (inactive) | 16.3 µM (inactive) | 0.378 µM | 4.85 µM (inactive) | 3.37 µM (inactive) | > 100 µM (inactive) | > 100 µM (inactive) | 18.2 µM (inactive) | > 100 µM (inactive) | 0.685 µM (active) | 0.287 µM (active) | –
N#CCCN(CCC#N)c1ccc(/C=C2\N=C(c3ccccc3)N(c3ccc(Cl)cc3)C2=O)cc1 | > 100 µM (inactive) | > 100 µM (inactive) | > 100 µM (inactive) | 58.7 µM (inactive) | > 100 µM (inactive) | > 100 µM (inactive) | > 100 µM (inactive) | > 100 µM (inactive) | > 100 µM (inactive) | – | > 100 µM | > 100 µM (inactive) | 45.4 µM (inactive) | – | > 100 µM (inactive) | 2.5 µM (inactive) | > 100 µM (inactive) | > 100 µM (inactive) | 48 µM (inactive) | –
COc1ccc(/N=N/C(=O)NC(Cc2ccccc2)C(=O)O)cc1 (stereo not drawn) | – | > 100 µM (inactive) | > 100 µM (inactive) | > 100 µM (inactive) | > 100 µM (inactive) | > 100 µM (inactive) | > 100 µM (inactive) | > 100 µM (inactive) | > 100 µM (inactive) | > 100 µM (inactive) | > 100 µM | > 100 µM (inactive) | > 100 µM (inactive) | > 100 µM (inactive) | > 100 µM (inactive) | > 100 µM (inactive) | > 100 µM (inactive) | > 100 µM (inactive) | > 100 µM (inactive) | > 100 µM (inactive)
C[C@@H]1[C@H](c2ccccc2)O[B-]2(c3ccc(Br)cc3)OC(=O)C[N+]12C (stereo partly drawn) | – | > 100 µM (inactive) | > 100 µM (inactive) | > 100 µM (inactive) | > 100 µM (inactive) | – | > 100 µM (inactive) | > 100 µM (inactive) | > 100 µM (inactive) | > 100 µM (inactive) | > 100 µM | 0.1 µM (active) | 66.5 µM (inactive) | 53.3 µM (inactive) | > 100 µM (inactive) | > 100 µM (inactive) | > 100 µM (inactive) | 24.9 µM (inactive) | 98.9 µM (inactive) | > 100 µM (inactive)
CC(=O)C1C(=O)C(=O)N(c2ccccc2)C1=O (stereo not drawn) | > 100 µM (inactive) | – | > 100 µM (inactive) | > 100 µM (inactive) | > 100 µM (inactive) | > 100 µM (inactive) | > 100 µM (inactive) | > 100 µM (inactive) | – | > 100 µM (inactive) | > 100 µM | > 100 µM (inactive) | > 100 µM (inactive) | > 100 µM (inactive) | > 100 µM (inactive) | > 100 µM (inactive) | > 100 µM (inactive) | > 100 µM (inactive) | – | –
CC(=O)O[C@H]1C(=O)[C@@]2(C)[C@H]([C@H](OC(=O)c3ccccc3)[C@]3(O)C[C@H](OC(=O)[C@H](O)[C@@H](NC(=O)c4ccccc4)c4ccccc4)C(C)=C1C3(C)C)[C@]1(OC(C)=O)CO[C@@H]1C[C@@H]2O [PACLITAXEL] | 0.054 µM (active) | 0.107 µM (active) | 0.0229 µM (active) | – | 0.00326 µM (active) | 0.00307 µM (active) | 0.486 µM (active) | 0.00384 µM (active) | 0.029 µM (active) | 0.00396 µM (active) | – | – | 1.09 µM (active) | 0.203 µM (active) | 0.00481 µM (active) | 0.00355 µM (active) | 0.0129 µM (active) | 0.00427 µM (active) | – | –
